Measurements: patent publication US20260022142A1, “MACROCYCLIC IMMUNOMODULATORS” (Bristol-Myers Squibb Company, priority 2022, published 2026)
Bridge positions count the residues as written; N and C are the ends. Square brackets hold non-standard residues; d marks the D form. Peptide text beside a SMILES is read from it. * marks the point of attachment. ξ: configuration not given here. Phe(4-COOH) = N[C@@H](Cc1ccc(C(=O)O)cc1)C(=O)O; Bip = N[C@@H](Cc1ccc(-c2ccccc2)cc1)C(=O)O; NH(CH2)14COOH = O=C(O)CCCCCCCCCCCCCCN*; Phe(3-Me) = Cc1cccc(C[C@H](N)C(=O)O)c1; hArg = N=C(N)NCCCC[C@H](N)C(=O)O; 4Pal = N[C@@H](Cc1ccncc1)C(=O)O; Cha = N[C@@H](CC1CCCCC1)C(=O)O; Thr(3ξ) = CC(O)[C@H](N)C(=O)O; Carboxymethyl = O=C(O)C*; Orn = NCCC[C@H](N)C(=O)O; Aun = NCCCCCCCCCCC(=O)O; Dab = NCC[C@H](N)C(=O)O; Dap = NC[C@H](N)C(=O)O; AEEA = NCCOCCOCC(=O)O

Biological target: T1, PD-1/PD-L1 interaction (PE-labeled human PD-L1-Ig binding to Jurkat cell line over-expressing human PD-1) (Homo sapiens, UniProt Q15116)
T1 construct: expressed in transfected cells; host or cells: Jurkat
T1 sequence (Q15116 25-288): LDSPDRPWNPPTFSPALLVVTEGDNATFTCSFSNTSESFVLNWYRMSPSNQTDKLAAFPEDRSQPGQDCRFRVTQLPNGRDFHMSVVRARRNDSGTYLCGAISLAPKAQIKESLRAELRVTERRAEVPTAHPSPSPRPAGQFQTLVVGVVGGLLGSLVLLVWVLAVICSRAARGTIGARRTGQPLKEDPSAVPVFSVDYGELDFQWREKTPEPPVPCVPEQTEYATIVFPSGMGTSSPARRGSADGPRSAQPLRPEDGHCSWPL
Assay: Jurkat-PD-1 Cell Binding High-Content Screening Assay (CBA)
Type: cell-based
Conditions: Jurkat cell line over-expressing human PD-1; PE-labeled PD-L1-Ig 20 nM final; read-out: Jurkat hPD1-PDL1 IC50
Procedure, shortened: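 Jurkat cells over-expressing human PD-1 (8×10^3 per well, DMEM/10% FCS) preincubated with compound 2 h at 37° C, then PE-labeled human PD-L1-Ig (20 nM final) added for 1 h. Cells fixed with paraformaldehyde, Hoechst-stained, and bound fluorescence quantified by high-content imaging.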

| SMILES | IC50 [nM] |
| --- | --- |
| CC(C)C[C@H]1NC(=O)[C@H](CCCN)NC(=O)[C@H](CCN)NC(=O)[C@H](Cc2ccc(-c3ccccc3)cc2)NC(=O)[C@H](C(C)C)NC(=O)[C@H](Cc2c[nH]c3ccccc23)NC(=O)[C@H](CC(=O)O)NC(=O)[C@H](Cc2ccc(OCC(=O)O)cc2)NC(=O)[C@H](CN)NC(=O)CSC[C@@H](C(=O)N[C@@H](CC(N)=O)C(=O)NCC(=O)NCCCCCCCCCCCCCCC(=O)O)NC(=O)[C@H](CO)NC(=O)[C@H](C(C)C)NC(=O)[C@H](CC2CCCCC2)NC(=O)[C@H](CCN)NC1=O [Compound 3008] ({CH2CO}-[Dap]Y(Carboxymethyl)DWV[Bip][Dab][Orn][dL][Dab][Cha]VSCNG-{NH(CH2)14COOH}; thioether N-14) | 552 |
| CC(C)C[C@H]1NC(=O)[C@H](CCCN)NC(=O)[C@H](C(C)C)NC(=O)[C@H](Cc2ccc(-c3ccccc3)cc2)NC(=O)[C@H](C(C)C)NC(=O)[C@H](Cc2c[nH]c3ccccc23)NC(=O)[C@H](CC(=O)O)NC(=O)[C@H](Cc2ccc(C(=O)O)cc2)NC(=O)[C@H](CCCCNC(=N)N)NC(=O)CSC[C@@H](C(=O)N[C@@H](C)C(=O)N[C@@H](CCCCN)C(=O)NCCCCCCCCCCCCCCC(=O)O)NC(=O)[C@H](C(C)O)NC(=O)[C@H](C(C)C)NC(=O)[C@H](CC2CCCCC2)NC(=O)[C@H](CCN)NC1=O (stereo partly drawn) [Compound 3016] ({CH2CO}-[hArg][Phe(4-COOH)]DWV[Bip]V[Orn][dL][Dab][Cha]V[Thr(3ξ)]CAK-{NH(CH2)14COOH}; thioether N-14) | 94.5 |
| CC(C)C[C@@H]1NC(=O)[C@H](Cc2c[nH]c3ccccc23)NC(=O)[C@H](CC(=O)O)NC(=O)[C@H](Cc2ccc(C(=O)O)cc2)NC(=O)[C@H](CCCCNC(=N)N)NC(=O)CSC[C@@H](C(=O)N[C@@H](C)C(=O)N[C@@H](CCN)C(=O)NCCCCCCCCCCCCCCC(=O)O)NC(=O)[C@H](CO)NC(=O)[C@H](C(C)C)NC(=O)[C@H](CC2CCCCC2)NC(=O)[C@H](Cc2c[nH]cn2)NC(=O)[C@@H](CC(C)C)NC(=O)[C@H](CCCN)NC(=O)[C@H](C(C)C)NC(=O)[C@H](Cc2ccc(-c3ccccc3)cc2)NC1=O [Compound 3019] ({CH2CO}-[hArg][Phe(4-COOH)]DWL[Bip]V[Orn][dL]H[Cha]VSCA[Dab]-{NH(CH2)14COOH}; thioether N-14) | 336 |
| Cc1cccc(C[C@@H]2NC(=O)[C@H](CC(=O)O)NC(=O)[C@H](Cc3ccc(OCC(=O)O)cc3)NC(=O)[C@H](C(C)O)NC(=O)CSC[C@@H](C(=O)N[C@@H](C)C(=O)N[C@@H](CCN)C(=O)NCCCCCCCCCCC(=O)O)NC(=O)[C@H](C(C)O)NC(=O)[C@H](C(C)C)NC(=O)[C@H](CC3CCCCC3)NC(=O)[C@H](CCN)NC(=O)[C@@H](CC(C)C)NC(=O)[C@H](CCCN)NC(=O)[C@H](C(C)C)NC(=O)[C@H](Cc3ccc(-c4ccccc4)cc3)NC(=O)[C@H](C(C)C)NC2=O)c1 (stereo partly drawn) [Compound 3020] ({CH2CO}-[Thr(3ξ)]Y(Carboxymethyl)D[Phe(3-Me)]V[Bip]V[Orn][dL][Dab][Cha]V[Thr(3ξ)]CA[Dab][Aun]-OH; thioether N-14) | 12 |
| CC(C)C[C@H]1NC(=O)[C@H](CCCN)NC(=O)[C@H](C(C)C)NC(=O)[C@H](Cc2ccc(-c3ccccc3)cc2)NC(=O)[C@H](C(C)C)NC(=O)[C@H](Cc2c[nH]c3ccccc23)NC(=O)[C@H](CC(=O)O)NC(=O)[C@H](Cc2ccc(C(=O)O)cc2)NC(=O)[C@H](C(C)O)NC(=O)CSC[C@@H](C(=O)N[C@@H](C)C(=O)N[C@@H](CCCCN)C(=O)NCCCCCCCCCCCCCCC(=O)O)NC(=O)[C@H](C(C)O)NC(=O)[C@H](C(C)C)NC(=O)[C@H](CC2CCCCC2)NC(=O)[C@H](CCN)NC1=O (stereo partly drawn) [Compound 3021] ({CH2CO}-[Thr(3ξ)][Phe(4-COOH)]DWV[Bip]V[Orn][dL][Dab][Cha]V[Thr(3ξ)]CAK-{NH(CH2)14COOH}; thioether N-14) | 130 |
| CC(C)C[C@H]1NC(=O)[C@H](CCCN)NC(=O)[C@H](C(C)C)NC(=O)[C@H](Cc2ccc(-c3ccccc3)cc2)NC(=O)[C@H](C(C)C)NC(=O)[C@H](Cc2c[nH]c3ccccc23)NC(=O)[C@H](CC(=O)O)NC(=O)[C@H](Cc2ccc(C(=O)O)cc2)NC(=O)[C@H](C(C)O)NC(=O)CSC[C@@H](C(=O)N[C@@H](C)C(=O)NCCOCCOCC(=O)N[C@@H](CCN)C(=O)NCCCCCCCCCCC(=O)O)NC(=O)[C@H](C(C)O)NC(=O)[C@H](C(C)C)NC(=O)[C@H](CC2CCCCC2)NC(=O)[C@H](CCN)NC1=O (stereo partly drawn) [Compound 3022] ({CH2CO}-[Thr(3ξ)][Phe(4-COOH)]DWV[Bip]V[Orn][dL][Dab][Cha]V[Thr(3ξ)]CA[AEEA][Dab][Aun]-OH; thioether N-14) | 7.3 |
| CC(C)C[C@@H]1NC(=O)[C@H](Cc2c[nH]c3ccccc23)NC(=O)[C@H](CC(=O)O)NC(=O)[C@H](Cc2ccc(C(=O)O)cc2)NC(=O)[C@H](C(C)O)NC(=O)CSC[C@@H](C(=O)N[C@@H](CC(N)=O)C(=O)N[C@@H](CCN)C(=O)NCCCCCCCCCCCCCCC(=O)O)NC(=O)[C@H](CO)NC(=O)[C@H](C(C)C)NC(=O)[C@H](CC2CCCCC2)NC(=O)[C@H](CCN)NC(=O)[C@@H](CC(C)C)NC(=O)[C@H](CCCN)NC(=O)[C@H](C(C)C)NC(=O)[C@H](Cc2ccc(-c3ccccc3)cc2)NC1=O (stereo partly drawn) [Compound 3023] ({CH2CO}-[Thr(3ξ)][Phe(4-COOH)]DWL[Bip]V[Orn][dL][Dab][Cha]VSCN[Dab]-{NH(CH2)14COOH}; thioether N-14) | 184 |
| CC(C)C[C@@H]1NC(=O)[C@H](Cc2c[nH]c3ccccc23)NC(=O)[C@H](CC(=O)O)NC(=O)[C@H](Cc2ccc(C(=O)O)cc2)NC(=O)[C@H](C(C)O)NC(=O)CSC[C@@H](C(=O)N[C@@H](C)C(=O)N[C@@H](CCN)C(=O)NCCCCCCCCCCCCCCC(=O)O)NC(=O)[C@H](CO)NC(=O)[C@H](C(C)C)NC(=O)[C@H](CC2CCCCC2)NC(=O)[C@H](Cc2c[nH]cn2)NC(=O)[C@@H](CC(C)C)NC(=O)[C@H](CCCN)NC(=O)[C@H](C(C)C)NC(=O)[C@H](Cc2ccc(-c3ccccc3)cc2)NC1=O (stereo partly drawn) [Compound 3024] ({CH2CO}-[Thr(3ξ)][Phe(4-COOH)]DWL[Bip]V[Orn][dL]H[Cha]VSCA[Dab]-{NH(CH2)14COOH}; thioether N-14) | 891 |
| CC(C)C[C@H]1NC(=O)[C@H](CCCN)NC(=O)[C@H](CCC(=O)O)NC(=O)[C@H](Cc2ccc(-c3ccccc3)cc2)NC(=O)[C@H](C(C)C)NC(=O)[C@H](Cc2c[nH]c3ccccc23)NC(=O)[C@H](CC(=O)O)NC(=O)[C@H](Cc2ccncc2)NC(=O)[C@H](C(C)O)NC(=O)CSC[C@@H](C(=O)N[C@@H](C)C(=O)NCCOCCOCC(=O)N[C@@H](CCCCN)C(=O)NCCCCCCCCCCCCCCC(=O)O)NC(=O)[C@H](CO)NC(=O)[C@H](C(C)C)NC(=O)[C@H](CC2CCCCC2)NC(=O)[C@H](CCN)NC1=O (stereo partly drawn) [Compound 3025] ({CH2CO}-[Thr(3ξ)][4Pal]DWV[Bip]E[Orn][dL][Dab][Cha]VSCA[AEEA]K-{NH(CH2)14COOH}; thioether N-14) | 80.5 |
| CC(C)C[C@H]1NC(=O)[C@H](CCCN)NC(=O)[C@H](C(C)C)NC(=O)[C@H](Cc2ccc(-c3ccccc3)cc2)NC(=O)[C@H](C(C)C)NC(=O)[C@H](Cc2c[nH]c3ccccc23)NC(=O)[C@H](CC(=O)O)NC(=O)[C@H](Cc2ccc(OCC(=O)O)cc2)NC(=O)[C@H](CCCCNC(=N)N)NC(=O)CSC[C@@H](C(=O)N[C@@H](CC(N)=O)C(=O)NCCOCCOCC(=O)N[C@@H](CCCCN)C(=O)NCCCCCCCCCCC(=O)O)NC(=O)[C@H](C(C)O)NC(=O)[C@H](C(C)C)NC(=O)[C@H](CC2CCCCC2)NC(=O)[C@H](CCN)NC1=O (stereo partly drawn) [Compound 3026] ({CH2CO}-[hArg]Y(Carboxymethyl)DWV[Bip]V[Orn][dL][Dab][Cha]V[Thr(3ξ)]CN[AEEA]K[Aun]-OH; thioether N-14) | 10 |
| CC(C)C[C@H]1NC(=O)[C@H](CCCN)NC(=O)[C@H](C(C)C)NC(=O)[C@H](Cc2ccc(-c3ccccc3)cc2)NC(=O)[C@H](C(C)C)NC(=O)[C@H](Cc2c[nH]c3ccccc23)NC(=O)[C@H](CC(=O)O)NC(=O)[C@H](Cc2ccc(OCC(=O)O)cc2)NC(=O)[C@H](C(C)O)NC(=O)CSC[C@@H](C(=O)N[C@@H](CC(N)=O)C(=O)NCCOCCOCC(=O)N[C@@H](CCCCN)C(=O)NCCCCCCCCCCC(=O)O)NC(=O)[C@H](C(C)O)NC(=O)[C@H](C(C)C)NC(=O)[C@H](CC2CCCCC2)NC(=O)[C@H](CCN)NC1=O (stereo partly drawn) [Compound 3027] ({CH2CO}-[Thr(3ξ)]Y(Carboxymethyl)DWV[Bip]V[Orn][dL][Dab][Cha]V[Thr(3ξ)]CN[AEEA]K[Aun]-OH; thioether N-14) | 9.5 |
| CC(C)C[C@H]1NC(=O)[C@H](CCCN)NC(=O)[C@H](C(C)C)NC(=O)[C@H](Cc2ccc(-c3ccccc3)cc2)NC(=O)[C@H](C(C)C)NC(=O)[C@H](Cc2c[nH]c3ccccc23)NC(=O)[C@H](CC(=O)O)NC(=O)[C@H](Cc2ccc(OCC(=O)O)cc2)NC(=O)[C@H](CCCCNC(=N)N)NC(=O)CSC[C@@H](C(=O)N[C@@H](C)C(=O)NCCOCCOCC(=O)N[C@@H](CCN)C(=O)NCCCCCCCCCCC(=O)O)NC(=O)[C@H](C(C)O)NC(=O)[C@H](C(C)C)NC(=O)[C@H](CC2CCCCC2)NC(=O)[C@H](CCN)NC1=O (stereo partly drawn) [Compound 3028] ({CH2CO}-[hArg]Y(Carboxymethyl)DWV[Bip]V[Orn][dL][Dab][Cha]V[Thr(3ξ)]CA[AEEA][Dab][Aun]-OH; thioether N-14) | 16.4 |
| CC(C)C[C@H]1NC(=O)[C@H](CCCN)NC(=O)[C@H](C(C)C)NC(=O)[C@H](Cc2ccc(-c3ccccc3)cc2)NC(=O)[C@H](C(C)C)NC(=O)[C@H](Cc2c[nH]c3ccccc23)NC(=O)[C@H](CC(=O)O)NC(=O)[C@H](Cc2ccc(OCC(=O)O)cc2)NC(=O)[C@H](C(C)O)NC(=O)CSC[C@@H](C(=O)N[C@@H](C)C(=O)NCCOCCOCC(=O)N[C@@H](CCN)C(=O)NCCCCCCCCCCC(=O)O)NC(=O)[C@H](C(C)O)NC(=O)[C@H](C(C)C)NC(=O)[C@H](CC2CCCCC2)NC(=O)[C@H](CCN)NC1=O (stereo partly drawn) [Compound 3029] ({CH2CO}-[Thr(3ξ)]Y(Carboxymethyl)DWV[Bip]V[Orn][dL][Dab][Cha]V[Thr(3ξ)]CA[AEEA][Dab][Aun]-OH; thioether N-14) | 7.9 |
